According to US9814734B2, “Bufalin liposome, preparation method therefor and application thereof” (THE FOURTH MILITARY MEDICAL UNIVERSITY, priority 2012, dated 2017):
Marks after values point to notes of the source that are not given here.

Legend:
[1] = system: colon cancer SW1116 cells; assay: Growth inhibition on tumor cells (MTT); assay type: cell-based; settings: Homo sapiens
Experimental: (§1) The cells of human cervical carcinoma Hela, lung cancer A549, gastric cancer SGC7901, liver cancer HepG2, myeloid leukemia HL-60 and colon cancer SW1116 are cultured in DMEM or RPMI 1640 medium (containing 10% inactived fetal bovine serum, 100 U·ml^−1 penicillin and 100 mg·l^−1 streptomycin) in a humidified 5% CO2 atmosphere at […]. The cells in logarithmic phase are collected, inoculated into 96-well plate at a density of 3×10^3/well (each well of 100 μl), and cultured for 24 h under 37° C., 5% CO2 and saturated humidity condition. A negative control group (culture solution) and administration groups with different concentrations are set up for the test. 1-300 nmol/1 bufalin or bufalin liposome (prepared according to the method of Example 1) is added into each culture well, followed by culturing in an incubator under 37° C., 5% CO2 and saturated humidity for 48 h, adding 20 μl of MTT solution (5 g/l) into each well, culturing for 4 h, and centrifuging. The supernatant was aspirated, and 150 μl dimethyl sulfoxide (DMSO) is added to each well and slightly shaking to dissolve crystal. The OD values are measured at 570 nm by an automatic microplate reader, and the cell growth inhibition rates are calculated according to following formula: cell growth inhibition rate/%=100−(OD value of administration group-OD value of blank control group)/(OD value of control group-OD value of bland control group)×100. IC50 (drug concentration at 50% inhibition on cell proliferation) value is calculated using mathematical method. Data are expressed as X±SEM. Statistical significance (P<0.05) for each variable is estimated by Student's t-test or ANOVA analysis.

[2] = system: gastric cancer SGC7901 cells; assay: Growth inhibition on tumor cells (MTT); assay type: cell-based; settings: Homo sapiens
Experimental: as §1

[3] = system: human cervical carcinoma Hela cells; assay: Growth inhibition on tumor cells (MTT); assay type: cell-based; settings: 48 h
Experimental: as §1

liver cancer HepG2 cells = assay: Growth inhibition on tumor cells (MTT); assay type: cell-based; settings: Homo sapiens
Experimental: as §1

lung cancer A549 cells = assay: Growth inhibition on tumor cells (MTT); assay type: cell-based; settings: Homo sapiens
Experimental: as §1

[4] = system: myeloid leukemia HL-60 cells; assay: Growth inhibition on tumor cells (MTT); assay type: cell-based; settings: Homo sapiens
Experimental: as §1

[5] = Evaluation of acute toxicities in mice (LD50, Bliss method); settings: mouse, in vivo, ip; male Balb/c mice, intraperitoneal, observed 7 days; dose as amount of bufalin; read-out: half-lethal dose (LD50)
Experimental: Male Balb/c mice (20-25 g) are purchased from the Laboratory Animal Center of Fourth Military Medical University. Bufalin is dissolved with anhydrous ethanol first, and then diluted with normal saline to 0.2 mg/ml (the final concentration of ethanol is below 1%). Bufalin liposome (prepared according to the method of Example 1) is directly dissolved in normal saline to obtain 0.2 mg/ml solution. 10 animals of each group are intraperitoneally injected with bufalin or bufalin liposome at dosages of 0.5, 1, 2, 4 and 6 mg/kg respectively (the dosage is the amount of bufalin in liposome, and the actual dosage of liposome is calculated from encapsulation efficiency). The mortality of mice, the toxic effect and any adverse reactions such as diarrhea, weight loss and behavior change are observed continuously for 7 days. The half-lethal dose (LD50) is calculated using graphical Bliss method.

[6] = system: HepG2 tumour bearing mice; assay: In vivo therapeutic effect on liver cancer, HepG2 tumour bearing nude mice; set-up: species or system mouse; settings: i.p. daily, 1 mg/kg bufalin or 1 ml/kg Huachasu
Experimental: Human hepatocellular carcinoma cells, HepG2, are cultured in DMEM medium supplemented with 10% FBS, 100 U/ml penicillin G, and 100 μg/ml streptomycin in a humidified 5% CO2 atmosphere at 37° C. Male BALB/c nude mice (6-week-aged) are fed in pathogen-free conditions. The bufalin liposome is prepared according to the method of Example 1. Exponentially growing HepG2 cells are collected, and prepared into cell suspension with PBS. 0.2 ml of the cell suspension (2×10^7 cells) is injected subcutaneously into the right back of each mouse. When the tumor grows to 100 mm^3 (about one week), the mice are randomly divided into 4 groups (8 mice for each group), and intraperitoneally injected with 0.9% normal saline (control group), bufalin or bufalin liposome at the same dosage (Example 1, 1 mg/kg, the dosage is the amount of bufalin in liposome, and the actual dosage of liposome is calculated from encapsulation efficiency) and Huachasu injection (1 ml/kg, the dosage is obtained by converting clinically commonly used dosage into mouse administration dosage) respectively every day. […] The tumor volume is calculated according to the formula: V(mm^3)=(maximal diameter×minimal diameter^2)/2. After 14 days, the mice are sacrificed in anesthesia with overdose of pentobarbital sodium, followed by completely stripping the tumor body and weighing, and calculating the tumor inhibition rate by: tumor inhibition rate (%)=(average tumor weight of control group-average tumor weight of administration group)/average tumor weight of control group×100. Data are expressed as X±SEM, and statistically processed via t-test or variance analysis.

[7] = system: mice bearing L1210 leukemia; assay: Therapeutic effect on mice bearing L1210 leukemia; assay type: in vivo, mouse; settings: ICR mice, i.p. daily, 1 mg/kg bufalin or 1 ml/kg Huachasu
Experimental: Mouse L1210 leukemia cells are subcultured intraperitoneally in ICR mouse. The bufalin liposome is prepared according to the method of Example 1. Male ICR mice (weight of 20±2 g, 5 mice in each cage) are fed in an animal room under alternative 12-hour illumination and 12-hour darkness at a constant temperature of 25° C. and allowed free access to standard laboratory diet. The mice are inoculated intraperitoneally with 1×10^5 L1210 leukemia cell suspension under sterile condition, and randomly divided into 4 groups (10 mice for each group). After 24 h, each group is intraperitoneally injected with 0.9% normal saline (control group), bufalin or bufalin liposome at the same dosage (obtained by Example 1, 1 mg/kg, the dosage is the amount of bufalin in liposome, and the actual dosage of liposome is calculated from encapsulation efficiency) and Huachasu injection (1 ml/kg, the dosage is obtained by converting clinically commonly used dosage into mouse administration dosage) respectively every day. The survival situations of mice within 35 days are observed and recorded, and the life extension rate is calculated. Life extension rate (%)=(average survival time of administration group/average survival time of control group-1)×100. Data are expressed as X±SEM. Statistical significance (P<0.05) for each variable was estimated by Student's t-test or ANOVA analysis.

[8] = system: patient with liver cancer or pancreas cancer; assay: Clinical tolerance of Huachasu injection (literature, Meng Z. et al.); assay type: in vivo, human; settings: worked out from the Huachasu injection dose and its bufalin content
Description: At present, a Huachasu injection, prepared by dissolving Venenum Bufonis in normal saline, has been used for the clinical treatment of cancer in China. It has been reported that the combination of gemcitabine-oxaliplatin with Huachasu can enhance the chemotherapeutic effect in the treatment of patients with advanced gallbladder cancer (Qin T J, et al. World J Gastroenterol. 2008, 14(33):5210-6). […] However, the Huachasu injection is a mixture solution of alkaloids in Venenum Bufonis, and the content of bufalin contained therein is very low due to the poor water solubility of bufalin.

## C[C@]12CC[C@H](O)C[C@H]1CC[C@@H]1[C@@H]2CC[C@]2(C)[C@@H](c3ccc(=O)oc3)CC[C@]12O [bufalin, 3β,14-dihydroxy-5β, 20(22)-bufadienolide]
[1]; SW 1116, SW1116, 1 nmol/l, 48 h, read-out: Inhibition rate (%)
  inhibition at 0.001 µM: 1.9 ± 0.3%
[1]; SW 1116, SW1116, 3 nmol/l, 48 h, read-out: Inhibition rate (%)
  inhibition at 0.003 µM: 2.7 ± 0.1%
[1]; SW 1116, SW1116, 10 nmol/l, 48 h, read-out: Inhibition rate (%)
  inhibition at 0.01 µM: 18 ± 3.9%
[1]; SW 1116, SW1116, 30 nmol/l, 48 h, read-out: Inhibition rate (%)
  inhibition at 0.03 µM: 42.7 ± 6.3%
[1]; SW 1116, SW1116, 100 nmol/l, 48 h, read-out: Inhibition rate (%)
  inhibition at 0.1 µM: 73.1 ± 8.8%
[1]; SW 1116, SW1116, 300 nmol/l, 48 h, read-out: Inhibition rate (%)
  inhibition at 0.3 µM: 99.4 ± 11.6%
[1]; SW 1116, SW1116, 48 h
  IC50: 30.6 nM
[2]; SGC-7901, 1 nmol/l, 48 h, read-out: Inhibition rate (%)
  inhibition at 0.001 µM: 3.1 ± 0.5%
[2]; SGC-7901, 3 nmol/l, 48 h, read-out: Inhibition rate (%)
  inhibition at 0.003 µM: 3.9 ± 0.8%
[2]; SGC-7901, 10 nmol/l, 48 h, read-out: Inhibition rate (%)
  inhibition at 0.01 µM: 23.7 ± 3.6%
[2]; SGC-7901, 30 nmol/l, 48 h, read-out: Inhibition rate (%)
  inhibition at 0.03 µM: 45.9 ± 6.5%
[2]; SGC-7901, 100 nmol/l, 48 h, read-out: Inhibition rate (%)
  inhibition at 0.1 µM: 85.6 ± 10.2%
[2]; SGC-7901, 300 nmol/l, 48 h, read-out: Inhibition rate (%)
  inhibition at 0.3 µM: 97.9 ± 11.3%
[2]; SGC-7901, 48 h
  IC50: 23.5 nM
[3]; 1 nmol/l, read-out: Inhibition rate (%)
  inhibition at 0.001 µM: 3.8 ± 2%
[3]; 3 nmol/l, read-out: Inhibition rate (%)
  inhibition at 0.003 µM: 9.6 ± 8.2%
[3]; 10 nmol/l, read-out: Inhibition rate (%)
  inhibition at 0.01 µM: 33.9 ± 4.5%
[3]; 30 nmol/l, read-out: Inhibition rate (%)
  inhibition at 0.03 µM: 56.3 ± 8.2%
[3]; 100 nmol/l, read-out: Inhibition rate (%)
  inhibition at 0.1 µM: 90.3 ± 10.7%
[3]; 300 nmol/l, read-out: Inhibition rate (%)
  inhibition at 0.3 µM: 95.1 ± 6.9%
[3]
  IC50: 17.1 nM
Liver cancer HepG2 cells; HepG2, 1 nmol/l, 48 h, read-out: Inhibition rate (%)
  inhibition at 0.001 µM: 5.3 ± 2.2%
Liver cancer HepG2 cells; HepG2, 3 nmol/l, 48 h, read-out: Inhibition rate (%)
  inhibition at 0.003 µM: 6.1 ± 2.3%
Liver cancer HepG2 cells; HepG2, 10 nmol/l, 48 h, read-out: Inhibition rate (%)
  inhibition at 0.01 µM: 30.2 ± 2.9%
Liver cancer HepG2 cells; HepG2, 30 nmol/l, 48 h, read-out: Inhibition rate (%)
  inhibition at 0.03 µM: 49.8 ± 8.3%
Liver cancer HepG2 cells; HepG2, 100 nmol/l, 48 h, read-out: Inhibition rate (%)
  inhibition at 0.1 µM: 69.8 ± 7.5%
Liver cancer HepG2 cells; HepG2, 300 nmol/l, 48 h, read-out: Inhibition rate (%)
  inhibition at 0.3 µM: 87.7 ± 9.6%
Liver cancer HepG2 cells; HepG2, 48 h
  IC50: 33 nM
Lung cancer A549 cells; A549, 1 nmol/l, 48 h, read-out: Inhibition rate (%)
  inhibition at 0.001 µM: 2 ± 0.2%
Lung cancer A549 cells; A549, 3 nmol/l, 48 h, read-out: Inhibition rate (%)
  inhibition at 0.003 µM: 8.5 ± 1%
Lung cancer A549 cells; A549, 10 nmol/l, 48 h, read-out: Inhibition rate (%)
  inhibition at 0.01 µM: 25.3 ± 3.8%
Lung cancer A549 cells; A549, 30 nmol/l, 48 h, read-out: Inhibition rate (%)
  inhibition at 0.03 µM: 44.2 ± 7.1%
Lung cancer A549 cells; A549, 100 nmol/l, 48 h, read-out: Inhibition rate (%)
  inhibition at 0.1 µM: 52.3 ± 8.3%
Lung cancer A549 cells; A549, 300 nmol/l, 48 h, read-out: Inhibition rate (%)
  inhibition at 0.3 µM: 63.8 ± 7.9%
Lung cancer A549 cells; A549, 48 h
  IC50: 78.8 nM
[4]; HL60, 1 nmol/l, 48 h, read-out: Inhibition rate (%)
  inhibition at 0.001 µM: 1.6 ± 0.1%
[4]; HL60, 3 nmol/l, 48 h, read-out: Inhibition rate (%)
  inhibition at 0.003 µM: 4.4 ± 0.7%
[4]; HL60, 10 nmol/l, 48 h, read-out: Inhibition rate (%)
  inhibition at 0.01 µM: 33.8 ± 6.1%
[4]; HL60, 30 nmol/l, 48 h, read-out: Inhibition rate (%)
  inhibition at 0.03 µM: 52.4 ± 8%
[4]; HL60, 100 nmol/l, 48 h, read-out: Inhibition rate (%)
  inhibition at 0.1 µM: 88.7 ± 9.8%
[4]; HL60, 300 nmol/l, 48 h, read-out: Inhibition rate (%)
  inhibition at 0.3 µM: 98 ± 10.2%
[4]; HL60, 48 h
  IC50: 21.1 nM
[5]
  LD50 at 7 days: 2 mg/kg
[6]; after 14 days, versus control group
  tumor inhibition rate: 21.8%
[6]; treatment day 0 (prior to administration)
  Tumor volume (mm^3): 410.5 ± 75.3 mm^3
[6]; treatment day 2
  Tumor volume (mm^3): 1055.8 ± 203.0 mm^3
[6]; treatment day 4
  Tumor volume (mm^3): 1621.0 ± 303.8 mm^3
[6]; treatment day 6
  Tumor volume (mm^3): 2215.9 ± 338.1* mm^3
[6]; treatment day 8
  Tumor volume (mm^3): 2115.7 ± 349.7* mm^3
[6]; treatment day 10
  Tumor volume (mm^3): 2565.4 ± 385.2* mm^3
[6]; treatment day 12
  Tumor volume (mm^3): 2691.9 ± 407.1* mm^3
[6]; treatment day 14, 1 mg/kg
  Tumor volume (mm^3): 3205.6±711.5 mm^3
[6]; treatment day 14, listed as Bufalin, 1 mg/kg
  Tumor volume (mm^3): 3205.6 ± 711.5* mm^3
[7]; observed 35 days, 1 mg/kg
  Average survival time: 22.8 ± 3.1 days
[7]; versus control group
  Life extension rate (%): 36.5%
[8]
  amount of bufalin tolerated by an adult patient every day: up to 2.3 μg
